One data set has as its system human CEM cells. Nature of the data set: Cytotoxicity (MTT) on CEM cells. It is filed as cell-based. The note with it: Tables 4 and 6, CEM cells, some values 'then plateau'. As for the experimental part:
The cytotoxic effect of a compound is studied on human CEM cells and MCF-7 mammary carcinoma cells that are or are not resistant to gemcitabine, which is an anticancer nucleoside used in chemotherapy.
The cytotoxicity (CC50) was estimated by measuring the reduction of 3-(4,5-dimethylthiazol-2-yl)-2,5-diphenyltetrazolium bromide (MTT), which is converted into insoluble violet formazan. To do this, 100 000 cells (human CEM-SS or MCF-7 lines) are inoculated per well in 100 μl of culture medium, in 96-well microtitration plates. After 24 hours, the test products are added in 100 μl and incubation is continued for 48 to 72 hours. MIT is then added in a proportion of 20 μl of a solution at 5 mg/ml in PBS. Three hours later, 100 μl of a DMF/acetic acid/HCl/SDS (sodium dodecyl sulfate) solution are added. After 3 hours at 37° C., the absorbance of the formazan is measured at 590 nm and compared with that of the untreated control.

Data set [1] has as its system L1210/0 murine leukemia cells. The experiment in a line: Cytotoxic effect on L1210/0 cells. It is filed as cell-based. The settings on record: Tables 5 and 7, L1210/0 cells.
The subject of data set [2] is FM3A/0 murine mammary carcinoma cells. Nature of the data set: Cytotoxic effect on FM3A/0 cells. It is filed as cell-based. The arrangement: unit not given beside the values. The settings on record: Tables 5 and 7, FM3A/0 cells.
A further data set concerns human Molt4/C8 cells. The experiment in a line: Cytotoxic effect on Molt4/C8 cells. It is filed as cell-based. The note with it: Tables 5 and 7, Molt4/C8 cells.
The test system of a further data set is human CEM T4 lymphocytes. The experiment in a line: Cytotoxic effect on CEM T4 lymphocytes. The format is cell-based. Also on record: unit not given beside the values. The note with it: Tables 5 and 7, CEM cells.
The subject of a further data set is HeLa cells. Nature of the data set: Cytotoxic effect on HeLa cells. The format is cell-based. Also on record: unit not given beside the values. The note with it: Tables 5 and 7, HeLa cells.
The next data set relates to HIV-1. The experiment in a line: Anti-HIV-1 effect in CEM cells. The format is cell-based. The settings on record: Human immunodeficiency virus 1, CCRF-CEM. The protocol: (§1) The evaluation test is described in Roy, B.; Chambert, S.; Lepoivre M.; Aubertin, A.-M.; Balzarini, J.; Décout, J.-L., Deoxyribonucleoside 2′- or 3′-mixed disulfides: prodrugs to target ribonucleotide reductase and/or to inhibit HIV reverse transcription. J. Med. Chem. 2003, 46, 2565-2568.
(§2) The toxicity and the antiviral activities were measured at different concentrations, and their evolution as a function of the concentration makes it possible to evaluate: • the concentration at which 50% of the cells are dead in the absence of virus (CC 50) for each of the test compounds, from the change in absorbance at 540 nm of formazan as a function of the concentration of test compound, • the concentration of compound that leads to a 50% reduction in the activity of viral reverse transcriptase (EC 50). This concentration is determined from the curve representing the change in the percentage of “remaining reverse transcriptase” activity (defined as being the ratio of the activity of the reverse transcriptase in the presence of the test compound to that of the untreated cells) as a function of the concentration of test compound.
(§3) EC50: concentration required to afford 50% protection to the CEM cells against the cytopathogenicity of HIV;

Data set [3] concerns HIV-2. Nature of the data set: Anti-HIV-2 effect in CEM cells. It is filed as cell-based. The note with it: Human immunodeficiency virus 2, CCRF-CEM, read-out: EC50 HIV-2. The protocol: as §1, §2, §3
The subject of data set [4] is HIV-2. Nature of the data set: Anti-HIV-2 effect in CEM/TK− cells. The settings on record: Human immunodeficiency virus 2, CEM-TK(-); Third Series; CEM cells having no thymidine kinase activity. It is filed as cell-based. The protocol: as §1, §2, §3
• Effect in CEM not expressing thymidine kinase activity (CEM/TK^−, cells having no thymidine kinase activity).

Data set [5] can be described thus: Cytotoxic concentration in CEM cells (antiviral tests). It is filed as cell-based, human. The note with it: human; First and Second Series, second table; viability of CEM cells. As for the experimental part:
as §2
(§4) CC50: cytotoxic concentration or concentration required to reduce the viability of the CEM cells by 50%.

The subject of the next data set is Moloney sarcoma virus. The experiment in a line: Inhibition of transformation of mouse embryo C3H/3T3 cells induced by Moloney sarcoma virus. The note with it: for EC50: C3H/3T3, read-out: EC50 (effective concentration 50%); for MIC (minimum inhibitory concentration): C3H/3T3 cells, a second bound is given in brackets for some compounds. It is filed as cell-based. Also on record: MIC (minimum inhibitory concentration): unit not given here. The text has this: 2.2. Inhibitory Effect on the Transformation of Mouse Embryo C3H/3T3 Cells Induced by Moloney Sarcoma Virus (Model of Infection with HIV)

A further data set has as its system CEM cells. The experiment in a line: Cytotoxic concentration in CEM cells (antiviral tests). The format is cell-based, human. The settings on record: First and Second Series, second table; viability of CEM cells. The protocol:
as §2, §4

Where [6] appears, read: First and Second Series, second table, read-out: EC50 HIV-1.
Setting [7] is: Third Series, read-out: EC50 HIV-1.
[8] abbreviates: First and Second Series, second table, CEM cells.

Where two headings read alike, the source gives them in different places.

One may read the CC50 as the concentration at which the toxic effect on the cells reaches its halfway point. On to `Cc1cn([C@H]2CC(SSCCCCCCO)[C@@H](CO)O2)c(=O)[nH]c1=O` (some centres unmarked) [Compound 18], for which the EC50 is 152 µM in the data set on human CEM cells (Homo sapiens, CCRF-CEM); 10.3 ± 5.7 µM with HIV-1 (setting [6]); 22.5 ± 3.5 µM in the data set with HIV-1 (setting [7]); 4 µM in the data set with HIV-1 (read-out: EC50 HIV-1, First and Second Series, first table); 6.5 ± 0.7 µM in the data set with HIV-2 [3] (First and Second Series, first table, CEM cells); 11.7 ± 2.9 µM in the data set with HIV-2 [3] (setting [8]). The EC50 was 17.5 ± 11 µM in the data set with HIV-2 [3] (Third Series, CEM cells); more than 50 µM in the data set on HIV-2 [4]; 8.3 ± 2.3 µM with Moloney sarcoma virus. The “cytotoxic effect, L1210/0” value in [1] was 44 ± 1. The “cytotoxic effect, FM3A/0” value in data set [2] is recorded as “≧500”. In addition, the “cytotoxic effect, Molt4/C8” value in the data set with human Molt4/C8 cells stood at 66 ± 9. For the same molecule, in the data set with human CEM T4 lymphocytes, the “cytotoxic effect, CEM” value is 187 ± 1. Further, the “cytotoxic effect, HeLa” value with HeLa cells is 56 ± 8. The molecule further displayed a cytotoxic concentration (CC50) in data set [5] of 107 ± 7 µM. Besides, the “MIC (minimum inhibitory concentration)” value against Moloney sarcoma virus is given as more than 100.

With `C=CCSS[C@H]1C[C@H](n2cc(C)c(=O)[nH]c2=O)O[C@@H]1CO` [Compound 20, 3′-deoxythymidin-3′-yl allyl disulfide], the EC50 in the data set with human CEM cells (Homo sapiens, CCRF-CEM) was found to be 48 µM; in the data set on human CEM cells, 46 µM; in the data set with HIV-1 (setting [6]), 12.5 ± 3.5 µM; with HIV-1 (setting [7]), 17.5 ± 3.5 µM; in the data set with HIV-2 [3] (setting [8]) it was 15 ± 7 µM; in the data set on HIV-2 [3] (Third Series, CEM cells) it was 20 ± 7 µM. Besides, the EC50 with HIV-2 [4] was more than 50 µM; in the data set on Moloney sarcoma virus, 2.2 ± 0.3 µM. In data set [1], the “cytotoxic effect, L1210/0” value amounted to 43 ± 5. Besides, in data set [2], the “cytotoxic effect, FM3A/0” value is listed as 299 ± 45. In addition, the “cytotoxic effect, Molt4/C8” value in the data set on human Molt4/C8 cells is recorded as 34 ± 6. For the same molecule, in the data set on human CEM T4 lymphocytes, the “cytotoxic effect, CEM” value stood at 128 ± 18. Further, in the data set on HeLa cells, the “cytotoxic effect, HeLa” value came out at 40 ± 7. For the same molecule, in [5], the CC50 was determined as 53 ± 7 µM. Besides, the “MIC (minimum inhibitory concentration)” value against Moloney sarcoma virus stood at 100.

As for `Cc1cn([C@H]2C[C@H](SSCCO)[C@@H](CO)O2)c(=O)[nH]c1=O` [Compound 21, 3′-deoxythymidin-3′-yl 2-hydroxyethyl disulfide], the EC50 in the data set on human CEM cells (Homo sapiens, CCRF-CEM) was more than 200 µM; in the data set on HIV-1 (setting [6]), 13.5 ± 3 µM; in the data set with HIV-1 (setting [7]), 17.5 ± 3.5 µM; in the data set with HIV-2 [3] (setting [8]), 14 ± 7 µM; with HIV-2 [3] (Third Series, CEM cells), 15 ± 7 µM; in the data set with HIV-2 [4], more than 50 µM. In the data set with Moloney sarcoma virus, the EC50 was 5.9 ± 0.5 µM. Besides, the “cytotoxic effect, L1210/0” value in [1] came to 26 ± 3. The “cytotoxic effect, FM3A/0” value in data set [2] was more than 500. Moreover, in the data set on human Molt4/C8 cells, the “cytotoxic effect, Molt4/C8” value was 128 ± 33. The “cytotoxic effect, CEM” value in the data set on human CEM T4 lymphocytes is recorded as 347 ± 71. In addition, the “cytotoxic effect, HeLa” value in the data set with HeLa cells is recorded as “≧100”. Also, the CC50 in data set [5] is more than 250 µM. Also, in the data set on Moloney sarcoma virus, the “MIC (minimum inhibitory concentration)” value was more than 100.

Regarding `Cc1cn([C@H]2C[C@H](SSC(Cl)(Cl)Cl)[C@@H](CO)O2)c(=O)[nH]c1=O` [Compound 22, 3′-deoxythymidin-3′-yl trichloromethyl disulfide], the EC50 with human CEM cells (Homo sapiens, CCRF-CEM) is 21 µM; with HIV-1 (setting [6]) it was 25 µM; in the data set on HIV-1 (setting [7]), 20 µM; with HIV-2 [3] (setting [8]), 17.5 ± 3.5 µM; in the data set with HIV-2 [3] (Third Series, CEM cells), 27.5 ± 3.5 µM; with HIV-2 [4], 22.5 ± 3.5 µM. The “cytotoxic effect, L1210/0” value in data set [1] is recorded as 45 ± 1. Besides, the “cytotoxic effect, FM3A/0” value in data set [2] stood at 244 ± 49. For the same molecule, the “cytotoxic effect, Molt4/C8” value with human Molt4/C8 cells is listed as 55 ± 19. In addition, in the data set on human CEM T4 lymphocytes, the “cytotoxic effect, CEM” value worked out at 121 ± 18. In the data set on HeLa cells, the “cytotoxic effect, HeLa” value was 39 ± 10. Besides, the CC50 in the data set with CEM cells turned out to be 103 ± 4 µM.

For `CCCCSS[C@H]1C[C@H](n2cc(C)c(=O)[nH]c2=O)O[C@@H]1CO` [Compound 24, 3′-deoxythymidin-3′-yl butyl disulfide], in data set [1], the “cytotoxic effect, L1210/0” value amounted to 32 ± 0. Besides, the “cytotoxic effect, FM3A/0” value in data set [2] was determined as 286 ± 24. Further, the “cytotoxic effect, Molt4/C8” value in the data set with human Molt4/C8 cells was found to be 28 ± 7. Also, the “cytotoxic effect, CEM” value with human CEM T4 lymphocytes was found to be 44 ± 1. For the same molecule, in the data set on HeLa cells, the “cytotoxic effect, HeLa” value is 23 ± 2. Moreover, the EC50 with HIV-1 (setting [6]) is 8 ± 3 µM; with HIV-1 (setting [7]), more than 10 µM; in the data set on HIV-2 [3] (setting [8]) it was more than 10 µM; in the data set on HIV-2 [3] (Third Series, CEM cells), more than 10 µM; in the data set with HIV-2 [4] it was more than 10 µM; in the data set on Moloney sarcoma virus it was 1 ± 0.5 µM. This molecule also returned a CC50 in the data set with CEM cells of 23.3 ± 0.6 µM. The “MIC (minimum inhibitory concentration)” value against Moloney sarcoma virus is listed as 100.

For the molecule `Cc1cn([C@H]2C[C@H](SSCCN)[C@@H](CO)O2)c(=O)[nH]c1=O.Cl` [Compound 27, 3′-deoxythymidin-3′-yl 2-aminoethyl disulfide hydrochloride], the “cytotoxic effect, L1210/0” value in [1] is 65 ± 9. For the same molecule, the “cytotoxic effect, FM3A/0” value in data set [2] is on record as more than 500. The “cytotoxic effect, Molt4/C8” value with human Molt4/C8 cells was 163 ± 41. Further, the “cytotoxic effect, CEM” value in the data set with human CEM T4 lymphocytes was found to be 437 ± 71. The “cytotoxic effect, HeLa” value with HeLa cells is listed as more than 100. The EC50 with HIV-1 (setting [6]) is 27.5 ± 3.5 µM; with HIV-1 (setting [7]), 20 µM; with HIV-2 [3] it was 27.5 ± 3.5 µM; in the data set with HIV-2 [4], 150 µM. Besides, the CC50 in data set [5] is more than 250 µM.
